Literature values, collected in patent publication US20250127701A1, “Cosmetical use of a topically applicable rinse-of composition (RC)” (Wella Germany GmbH, priority 2023, published 2025).

Columns and labels:
[1] = system: hair shaft, hair matrix keratinocytes; conditions: studies have shown
[2] = target: T1, olfactory receptor OR2AT4 (Homo sapiens, UniProt A6NND4); conditions: receptor expressed in the epithelium of human hair follicles
T1 sequence (A6NND4 1-320): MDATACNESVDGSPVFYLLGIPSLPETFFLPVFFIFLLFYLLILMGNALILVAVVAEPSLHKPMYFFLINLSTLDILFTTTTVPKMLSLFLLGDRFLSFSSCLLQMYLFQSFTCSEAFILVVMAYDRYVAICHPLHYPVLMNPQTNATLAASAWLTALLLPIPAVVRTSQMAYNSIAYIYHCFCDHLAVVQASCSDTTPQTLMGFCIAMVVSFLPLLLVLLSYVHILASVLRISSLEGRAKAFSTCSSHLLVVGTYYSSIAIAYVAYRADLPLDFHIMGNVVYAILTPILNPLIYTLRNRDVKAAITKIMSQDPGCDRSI

Row | Effect on the olfactory receptor OR2AT4 [2] | Structure (SMILES) | Effect on anagen duration [1] | Effect on hair shaft elongation [1] | Effect on proliferation of hair matrix keratinocytes [1]
1 |  | Cn1c(=O)c2c(ncn2C)n(C)c1=O [caffeine, 1,3,7-trimethylxanthine] | prolonges anagen duration | enhances the hair shaft elongation | stimulates the proliferation of hair matrix keratinocytes
2 | stimulatory effect | CC1=CCC(CCC(C)C(C)O)C1(C)C (stereo not shown) [Sandal pentanol, 3-methyl-5-(2,2,3-trimethylcyclopent-3-en-1-yl)pentan-2-ol] |  |  | 
